Test results taken from article PMC7048748, “Anxiolytic Drug FGIN-1-27 Ameliorates Autoimmunity by Metabolic Reprogramming of Pathogenic Th17 Cells” (Scientific Reports, 2020).

System: eIF2α
Assay: Western blot for phosphorylated eIF2α
Format: cell-based, mouse
Details: 24 hours, compared to DMSO controls
Procedure: (a) MA-plot showing shrunken log2 fold-changes of detected genes between the DMSO and FGIN-1-27 RNA-seq samples, ranked by average normalized count. Red dots indicate differentially expressed genes at adjusted p-value <0.05. (b) Transcript levels for the indicated genes after 24 hours of treatment with DMSO or FGIN-1-27 quantified by qPCR. The error bars represent SD. (c) Western blot analysis for phosphorylated eIF2α and ATF4 24 hours after treatment with DMSO or FGIN-1-27 (5 and 10 µM). Data are representative of 3 independent experiments. (d) Amino acids in Th17 cells measured 72 hours after treatment with FGIN-1-27. The error bars represent SD. (e) ROS was measured using cell permeant reagent 2′,7′ –dichlorofluorescin diacetate (DCFDA) at 24 hours following treatment with FGIN-1-27. Filled grey histogram-DMSO, dotted line-FGIN-1-27 (10 µM) and dashed line indicates FGIN-1-27 (5 µM). […] Data are normalized using DMSO treated cells as 100% and the error bars represent SD.
Cell lysates were prepared by lysis in RIPA buffer containing protease and phosphatase inhibitors and immunoblotting was performed by standard methods.
(a) W estern blot analysis for phosphorylated eIF2α and ATF4 24 hours after treatment
with DMSO or FGIN-1-27 (5 and 10 µM). […]
(a) Indicated sterols were measured in Th17 cells treated with DMSO or FGIN-1-27 for […]

Compound: CCCCCCN(CCCCCC)C(=O)Cc1c(-c2ccc(F)cc2)[nH]c2ccccc12 [FGIN-1-27, N, N-di-n-hexyl 2-(4-fluorophenyl) indole-3-acetamide]
- increase in eIF2α phosphorylation: 4.5 fold
